Experimental data reported in ChEMBL document CHEMBL3627628, “New macrocyclic analogs of the natural histone deacetylase inhibitor FK228; design, synthesis and preliminary biological evaluation” (Bioorg Med Chem, 2015).
The source made the active and inactive calls. The calls are words filed in the database; no cut-off is given here.

Experiments:
HCT-116 = test: Antitumor activity against human HCT116 cells xenografted in Swiss mouse assessed as tumor growth inhibition at 10 mg/kg, ip dosed starting day 1 post tumor implantation and repeated every 7 days for 4 times; assay type: functional, organism-based
Mus musculus = test: Toxicity in human HCT116 cells xenografted Swiss mouse at 10 mg/kg, ip dosed starting day 1 post tumor implantation and repeated every 7 days for 4 times; assay type: organism-based, HCT-116; conditions: in vivo, 168 h
IGROV-1 = test: cells; conditions: Homo sapiens, IGROV-1, 72 h
cells = conditions: Homo sapiens, IGROV-1, 72 h
Histone deacetylase 1 = Histone deacetylase 1 (Homo sapiens, UniProt Q13547); test: Inhibition of HDAC1 (unknown origin) incubated for 1 hr by fluor de lys substrate based fluorescence method
[1] = biological target: T1, Protein deacetylase HDAC6 (Homo sapiens, UniProt Q9UBN7); test: Inhibition of HDAC6 (unknown origin) incubated for 1 hr by fluor de lys substrate based fluorescence method
T1 sequence (Q9UBN7 whole entry): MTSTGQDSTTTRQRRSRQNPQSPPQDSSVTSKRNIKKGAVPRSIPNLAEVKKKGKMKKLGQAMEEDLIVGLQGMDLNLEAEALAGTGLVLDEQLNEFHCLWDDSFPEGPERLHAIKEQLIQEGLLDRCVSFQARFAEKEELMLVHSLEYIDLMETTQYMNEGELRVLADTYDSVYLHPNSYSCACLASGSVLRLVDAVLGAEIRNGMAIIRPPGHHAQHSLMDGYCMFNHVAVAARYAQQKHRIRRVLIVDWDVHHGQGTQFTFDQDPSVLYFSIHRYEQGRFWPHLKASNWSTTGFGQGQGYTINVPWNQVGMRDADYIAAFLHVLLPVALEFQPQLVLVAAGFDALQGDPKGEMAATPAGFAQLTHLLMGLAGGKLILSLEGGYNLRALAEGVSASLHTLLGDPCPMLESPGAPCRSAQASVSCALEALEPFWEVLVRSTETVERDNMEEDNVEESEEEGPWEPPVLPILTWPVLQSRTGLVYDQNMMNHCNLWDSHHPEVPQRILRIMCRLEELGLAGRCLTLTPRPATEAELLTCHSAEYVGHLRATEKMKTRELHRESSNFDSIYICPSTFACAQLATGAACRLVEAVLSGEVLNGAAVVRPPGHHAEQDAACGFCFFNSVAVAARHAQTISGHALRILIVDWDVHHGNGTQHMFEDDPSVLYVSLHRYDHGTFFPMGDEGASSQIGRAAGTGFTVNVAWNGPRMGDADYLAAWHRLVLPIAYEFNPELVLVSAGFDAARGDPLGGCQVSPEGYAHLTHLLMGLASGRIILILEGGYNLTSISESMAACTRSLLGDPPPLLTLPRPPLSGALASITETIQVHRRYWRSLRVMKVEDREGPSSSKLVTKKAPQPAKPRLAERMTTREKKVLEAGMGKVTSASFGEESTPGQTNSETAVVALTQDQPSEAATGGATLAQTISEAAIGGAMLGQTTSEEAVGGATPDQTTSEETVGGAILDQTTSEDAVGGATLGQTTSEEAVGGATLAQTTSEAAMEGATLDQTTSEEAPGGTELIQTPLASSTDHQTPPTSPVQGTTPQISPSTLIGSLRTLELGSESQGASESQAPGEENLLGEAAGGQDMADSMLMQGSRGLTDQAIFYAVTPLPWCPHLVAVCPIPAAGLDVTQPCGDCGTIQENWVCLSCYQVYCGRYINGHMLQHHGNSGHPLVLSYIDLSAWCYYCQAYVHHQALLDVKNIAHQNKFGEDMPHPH

Histone deacetylase 8 = biological target: T2, Histone deacetylase 8 (Homo sapiens, UniProt Q9BY41); test: Inhibition of HDAC8 (unknown origin) incubated for 1 hr by fluor de lys substrate based fluorescence method
T2 sequence (Q9BY41 whole entry): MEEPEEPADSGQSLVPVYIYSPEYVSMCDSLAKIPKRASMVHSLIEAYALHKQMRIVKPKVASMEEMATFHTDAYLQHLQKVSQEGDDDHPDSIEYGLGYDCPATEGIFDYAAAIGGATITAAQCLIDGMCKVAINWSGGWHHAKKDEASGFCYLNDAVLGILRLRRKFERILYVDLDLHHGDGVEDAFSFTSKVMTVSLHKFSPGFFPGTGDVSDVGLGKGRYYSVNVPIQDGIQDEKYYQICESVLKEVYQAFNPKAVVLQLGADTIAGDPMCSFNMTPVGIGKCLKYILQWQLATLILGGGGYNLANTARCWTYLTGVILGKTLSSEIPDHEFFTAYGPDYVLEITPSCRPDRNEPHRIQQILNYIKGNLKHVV

Histone deacetylase 1, sequence (Q13547 whole entry): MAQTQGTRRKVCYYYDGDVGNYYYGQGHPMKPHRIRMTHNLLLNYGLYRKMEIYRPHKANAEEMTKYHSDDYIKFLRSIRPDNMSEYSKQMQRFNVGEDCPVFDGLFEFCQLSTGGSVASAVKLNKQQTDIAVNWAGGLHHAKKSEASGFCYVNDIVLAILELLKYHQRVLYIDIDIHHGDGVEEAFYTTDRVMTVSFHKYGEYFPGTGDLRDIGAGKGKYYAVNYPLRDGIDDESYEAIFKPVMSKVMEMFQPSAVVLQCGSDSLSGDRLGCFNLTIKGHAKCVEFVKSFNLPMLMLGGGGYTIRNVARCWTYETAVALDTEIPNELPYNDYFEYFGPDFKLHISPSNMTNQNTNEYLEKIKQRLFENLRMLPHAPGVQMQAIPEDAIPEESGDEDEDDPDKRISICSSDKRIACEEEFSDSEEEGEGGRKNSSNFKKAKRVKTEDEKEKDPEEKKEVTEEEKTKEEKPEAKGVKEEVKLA

Compound | IC50 (IGROV-1) | IC50 (cells) | IC50 (Histone deacetylase 1) | IC50 [1] | IC50 (Histone deacetylase 8) | TGI (HCT-116) | Activity (Mus musculus)
CC(C)[C@H]1NC(=O)C[C@H]2/C=C/CCSSC[C@@H](NC1=O)C(=O)NCc1cc(-c3ccccc3)ccc1CC(=O)O2 | 0.6 µM | 0.2 µM |  |  |  | Active | Non-toxic
CC(=O)SCC/C=C/[C@@H]1CC(=O)N[C@H](Cc2ccccc2)C(=O)N[C@H](C)C(=O)N[C@H](C(C)C)c2cn(nn2)CC(=O)O1 | 0.97 µM | 0.12 µM |  |  |  |  | 
CC(=O)SCC/C=C/[C@@H]1CC(=O)N[C@H](C(C)C)C(=O)N[C@H](Cc2ccccc2)C(=O)N[C@H](C(C)C)c2cn(nn2)CC(=O)O1 | 3.1 µM | 0.19 µM | 1.05 µM | 8.67 µM | 1.8 µM |  | 
CC(C)[C@H]1NC(=O)C[C@H]2/C=C/CCSSC[C@@H](NC1=O)C(=O)NCc1ccc(Br)cc1CC(=O)O2 | 2.75 µM | 0.38 µM |  |  |  |  | 
CC(C)[C@H]1NC(=O)C[C@H]2/C=C/CCSSC[C@@H](NC1=O)C(=O)Nc1cccc(c1)CC(=O)O2 | > 10 µM | > 10 µM |  |  |  |  | 
CC(C)[C@H]1NC(=O)C[C@H]2/C=C/CCSSC[C@@H](NC1=O)C(=O)NCc1[nH]c3ccccc3c1CC(=O)O2 | 2.81 µM | 0.78 µM |  |  |  |  | 
CC(C)[C@H]1NC(=O)C[C@H]2/C=C/CCSSC[C@@H](NC1=O)C(=O)Nc1ccccc1C(=O)NCC(=O)O2 | > 10 µM | > 10 µM |  |  |  |  | 
CCCCCCCC(=O)SCC/C=C/[C@@H]1CC(=O)N[C@H](C(C)C)C(=O)N[C@H](C)C(=O)N[C@H](C(C)C)C(=O)NCC(=O)O1 | 0.23 µM | 0.009 µM | 1.27 µM | 18.3 µM | 14.3 µM |  | 
CC(C)[C@H]1NC(=O)C[C@H]2/C=C/CCSSC[C@@H](NC1=O)C(=O)NCc1ccc(Cl)cc1CC(=O)O2 | 3.5 µM | 0.47 µM |  |  |  |  | 
CC(C)[C@H]1NC(=O)C[C@H]2/C=C/CCSSC[C@@H](NC1=O)C(=O)N[C@H](C(C)C)c1cn(nn1)CC(=O)O2 | 0.4 µM | 0.11 µM |  |  |  |  | 
CC(C)[C@@H]1NC(=O)CC(=O)O[C@@H]2/C=C/CCSSC[C@@H](NC(=O)[C@@H](C(C)C)NC(=O)C2)C(=O)N1 | 3.3 µM | 11 µM |  |  |  |  | 
CC(C)[C@H]1NC(=O)C[C@H]2/C=C/CCSSC[C@@H](NC1=O)C(=O)NCc1cc(OC(F)(F)F)ccc1CC(=O)O2 | 0.51 µM | 0.18 µM |  |  |  |  | 
C=C(C)[C@H]1NC(=O)[C@H]2CSSCC/C=C/[C@H](CC(=O)N[C@H](C)C(=O)N2)OC(=O)C[C@@H]1O [SPIRUCHOSTATIN A] | 0.025 µM | 0.015 µM |  |  |  |  | 
CC[C@H]1NC(=O)[C@@H](C(C)C)NC(=O)C[C@@H](/C=C/CCSC(C)=O)OC(=O)CNC(=O)[C@@H](C(C)C)NC1=O | 6 µM | 0.27 µM |  |  |  |  | 

Second part, led by results:

IC50 (IGROV-1) | IC50 (cells) | IC50 (Histone deacetylase 1) | IC50 [1] | IC50 (Histone deacetylase 8) | Compound | TGI (HCT-116) | Activity (Mus musculus)
2.5 µM | 0.4 µM |  |  |  | CC(C)[C@H]1NC(=O)C[C@H]2/C=C/CCSSC[C@@H](NC1=O)C(=O)NCc1ccccc1CC(=O)O2 |  | 
7 µM | 1.5 µM |  |  |  | CC(C)[C@H]1NC(=O)C[C@H]2/C=C/CCSSC[C@@H](NC1=O)C(=O)NC1CCC(CC1)C(=O)O2 |  | 
10.6 µM | 1.5 µM | 1.04 µM | 9.89 µM | 1.62 µM | CC(=O)SCC/C=C/[C@@H]1CC(=O)N[C@H](C(C)C)C(=O)N[C@H](Cc2cn(C)cn2)C(=O)N[C@H](C(C)C)c2cn(nn2)CC(=O)O1 |  | 
> 10 µM | > 10 µM |  |  |  | CC(C)[C@H]1NC(=O)C[C@H]2/C=C/CCSSC[C@@H](NC1=O)C(=O)N(C)Cc1ccccc1CC(=O)O2 |  | 
> 10 µM | > 10 µM |  |  |  | CC(C)[C@H]1NC(=O)C[C@H]2/C=C/CCSSC[C@@H](NC1=O)C(=O)N1CCC(CC1)CC(=O)O2 |  | 
0.7 µM | 0.03 µM | 0.82 µM | 8.9 µM | 8.01 µM | CCCCCCCCSSCC/C=C/[C@@H]1CC(=O)N[C@H](C(C)C)C(=O)N[C@H](C)C(=O)N[C@H](C(C)C)C(=O)NCC(=O)O1 |  | 
2 µM | 2.5 µM |  |  |  | CC(C)[C@H]1NC(=O)C[C@H]2/C=C/CCSSC[C@@H](NC1=O)C(=O)NCc1cc(Br)ccc1CC(=O)O2 |  | 
> 10 µM | 2.2 µM |  |  |  | CC(=O)SCC/C=C/[C@@H]1CC(=O)N[C@H](C(C)C)C(=O)N[C@H](Cc2ccc(O)cc2)C(=O)N[C@H](C(C)C)c2cn(nn2)CC(=O)O1 |  | 
